From the Kinase Knowledgebase extract (Sharma et al. 2016) come the findings set out here.

Where only a bound is given, the exact number is not on record here.

For orientation: IC50 means the concentration needed to halve the response being measured. Low values mean higher potency, high ones lower potency.

One test deals with EGFR (UniProt P00533).
A further test addresses CDK2 (UniProt P24941). The experiment in a line: Enzyme Assay.

EGFR, sequence (P00533 whole entry, looked up): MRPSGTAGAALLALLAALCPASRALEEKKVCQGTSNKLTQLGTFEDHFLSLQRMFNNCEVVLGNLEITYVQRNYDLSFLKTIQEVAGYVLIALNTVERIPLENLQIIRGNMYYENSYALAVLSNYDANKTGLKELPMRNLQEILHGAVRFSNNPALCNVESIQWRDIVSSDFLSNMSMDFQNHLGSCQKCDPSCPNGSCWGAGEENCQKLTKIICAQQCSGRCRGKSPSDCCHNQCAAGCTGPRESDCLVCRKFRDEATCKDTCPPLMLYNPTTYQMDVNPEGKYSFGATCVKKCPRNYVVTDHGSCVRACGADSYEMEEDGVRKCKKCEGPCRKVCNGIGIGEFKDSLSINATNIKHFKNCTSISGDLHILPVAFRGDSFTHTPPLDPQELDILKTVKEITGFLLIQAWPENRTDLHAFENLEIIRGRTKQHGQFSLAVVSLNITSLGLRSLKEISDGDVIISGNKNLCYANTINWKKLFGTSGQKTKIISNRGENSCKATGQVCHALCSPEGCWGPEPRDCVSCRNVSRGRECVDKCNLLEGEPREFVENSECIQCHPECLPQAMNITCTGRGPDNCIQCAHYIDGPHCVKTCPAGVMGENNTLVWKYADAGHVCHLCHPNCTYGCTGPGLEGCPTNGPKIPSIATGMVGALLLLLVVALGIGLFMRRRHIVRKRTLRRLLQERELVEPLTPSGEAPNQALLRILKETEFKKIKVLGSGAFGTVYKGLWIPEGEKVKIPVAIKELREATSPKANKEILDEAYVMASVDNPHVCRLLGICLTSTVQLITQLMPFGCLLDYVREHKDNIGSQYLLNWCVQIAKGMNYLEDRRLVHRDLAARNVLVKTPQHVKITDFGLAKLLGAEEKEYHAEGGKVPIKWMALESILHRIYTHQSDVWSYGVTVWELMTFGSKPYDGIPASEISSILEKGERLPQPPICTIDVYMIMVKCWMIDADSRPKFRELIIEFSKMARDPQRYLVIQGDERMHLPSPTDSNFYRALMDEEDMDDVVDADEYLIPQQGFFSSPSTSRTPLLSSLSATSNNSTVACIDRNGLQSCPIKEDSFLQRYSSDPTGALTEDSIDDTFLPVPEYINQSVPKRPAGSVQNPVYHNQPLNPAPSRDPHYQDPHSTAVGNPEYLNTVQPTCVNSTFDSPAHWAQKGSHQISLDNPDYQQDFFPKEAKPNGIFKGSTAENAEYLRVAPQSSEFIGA

Consider `O=c1[nH]ccc(NC[C@@H](O)c2cccc(Cl)c2)c1-c1nc2cc3cn[nH]c3cc2[nH]1`, for which the IC50 against EGFR and at CDK2 was less than 25 µM in each case.
As to `Cc1nc(N2CCN(C(=O)OC(C)(C)C)CC2)nc2[nH]c(-c3c(NC[C@@H](O)c4cccc(Cl)c4)cc[nH]c3=O)nc12`, the half-inhibitory concentration (IC50) against EGFR and against CDK2 was less than 25 µM in each case.
`CCN1CCN(c2nc(C)c3nc(-c4c(NC[C@@H](O)c5cccc(Cl)c5)cc[nH]c4=O)[nH]c3n2)CC1`: the half-maximal inhibitory concentration (IC50) against EGFR and against CDK2 was less than 25 µM each time.
As to `Cc1nc(N2CCN(Cc3ncc[nH]3)CC2)nc2[nH]c(-c3c(NC[C@@H](O)c4cccc(Cl)c4)cc[nH]c3=O)nc12`, the IC50 on EGFR and on CDK2 was less than 25 µM in each case.
As for `CCC(C)CN1CCN(c2nc(C)c3nc(-c4c(NC[C@@H](O)c5cccc(Cl)c5)cc[nH]c4=O)[nH]c3n2)CC1` (some centres not stated), the IC50 at EGFR and against CDK2 was less than 25 µM in each case.
For the compound `Cc1nc(N2CCN(Cc3ccccn3)CC2)nc2[nH]c(-c3c(NC[C@@H](O)c4cccc(Cl)c4)cc[nH]c3=O)nc12`, the IC50 against EGFR and on CDK2 was less than 25 µM each time.
`COc1ccc([C@H](O)CNc2cc[nH]c(=O)c2-c2nc3cc4cn[nH]c4cc3[nH]2)cc1Br`: the IC50 at EGFR and against CDK2 was less than 25 µM in each case.
In the case of `O=c1[nH]ccc(NCC(O)c2cccc(Cl)c2)c1-c1nc2cnccc2[nH]1` (configuration not stated), the IC50 on EGFR and against CDK2 was less than 25 µM throughout.
For the compound `Cc1nc(N2CCN(Cc3cccn3C)CC2)nc2[nH]c(-c3c(NC[C@@H](O)c4cccc(Cl)c4)cc[nH]c3=O)nc12`, the IC50 at EGFR and against CDK2 was less than 25 µM throughout.
As to `Cc1nc(N2CCN(Cc3nccn3C)CC2)nc2[nH]c(-c3c(NC[C@@H](O)c4cccc(Cl)c4)cc[nH]c3=O)nc12`, the IC50 at EGFR and against CDK2 was less than 25 µM throughout.
In the case of `O=c1[nH]c2cc3nc(-c4c(NC[C@@H](O)c5cccc(Cl)c5)cc[nH]c4=O)[nH]c3cc2[nH]1`, the IC50 at EGFR and against CDK2 was less than 25 µM each time.
In the case of `Cc1nc(N2CCN(CC3CC3)CC2)nc2[nH]c(-c3c(NC[C@@H](O)c4cccc(Cl)c4)cc[nH]c3=O)nc12`, the IC50 against EGFR and against CDK2 was less than 25 µM throughout.
`Cc1nc(N2CCN(Cc3cccc(F)c3)CC2)nc2[nH]c(-c3c(NC[C@@H](O)c4cccc(Cl)c4)cc[nH]c3=O)nc12`: the IC50 against EGFR and against CDK2 was less than 25 µM each time.
In the case of `Cc1nc(N2CCN(COCc3ccccc3)CC2)nc2[nH]c(-c3c(NC[C@@H](O)c4cccc(Cl)c4)cc[nH]c3=O)nc12`, the IC50 against EGFR and against CDK2 was less than 25 µM throughout.
`COc1ccc(C(O)CNc2cc[nH]c(=O)c2-c2nc3cnccc3[nH]2)cc1Br` (configuration not stated): the IC50 against EGFR and at CDK2 was less than 25 µM in each case.
For the compound `CCOC(=O)C1CC1CN1CCN(c2nc(C)c3nc(-c4c(NC[C@@H](O)c5cccc(Cl)c5)cc[nH]c4=O)[nH]c3n2)CC1` (some centres not stated), the IC50 against EGFR and against CDK2 was less than 25 µM in each case.
With `Cc1nc(N2CCN(Cc3nccs3)CC2)nc2[nH]c(-c3c(NC[C@@H](O)c4cccc(Cl)c4)cc[nH]c3=O)nc12`, the IC50 against EGFR and at CDK2 was less than 25 µM in each case.
With `Cc1nc(N2CCNCC2)nc2[nH]c(-c3c(NC[C@@H](O)c4cccc(Cl)c4)cc[nH]c3=O)nc12`, the IC50 on EGFR and on CDK2 was less than 25 µM throughout.
Consider `O=c1[nH]ccc(NCC(O)c2cccc(Br)c2)c1-c1nc2cnccc2[nH]1` (configuration not stated), for which the IC50 at EGFR and against CDK2 was less than 25 µM in each case.
`O=c1[nH]ccc(NC[C@@H](O)c2cccc(Br)c2)c1-c1nc2cc3cn[nH]c3cc2[nH]1`: the concentration for half-maximal inhibition (IC50) against EGFR and against CDK2 was less than 25 µM throughout.
Regarding `Cc1nc(N2CCOCC2)nc2[nH]c(-c3c(NC[C@@H](O)c4cccc(Cl)c4)cc[nH]c3=O)nc12`, the half-inhibitory concentration (IC50) at EGFR and against CDK2 was less than 25 µM throughout.
